Data set [1] is described as follows: Solubility of Compound 6A. In kind it is physicochemical. The following applies: for solubility: water, read-out: aqueous solubility.
In the next data set the target is T1, Human TLR7 (Homo sapiens, UniProt Q9NYK1).
T1 construct: expressed in transfected cells; host or cells: HEK293
T1 sequence (Q9NYK1 27-1049): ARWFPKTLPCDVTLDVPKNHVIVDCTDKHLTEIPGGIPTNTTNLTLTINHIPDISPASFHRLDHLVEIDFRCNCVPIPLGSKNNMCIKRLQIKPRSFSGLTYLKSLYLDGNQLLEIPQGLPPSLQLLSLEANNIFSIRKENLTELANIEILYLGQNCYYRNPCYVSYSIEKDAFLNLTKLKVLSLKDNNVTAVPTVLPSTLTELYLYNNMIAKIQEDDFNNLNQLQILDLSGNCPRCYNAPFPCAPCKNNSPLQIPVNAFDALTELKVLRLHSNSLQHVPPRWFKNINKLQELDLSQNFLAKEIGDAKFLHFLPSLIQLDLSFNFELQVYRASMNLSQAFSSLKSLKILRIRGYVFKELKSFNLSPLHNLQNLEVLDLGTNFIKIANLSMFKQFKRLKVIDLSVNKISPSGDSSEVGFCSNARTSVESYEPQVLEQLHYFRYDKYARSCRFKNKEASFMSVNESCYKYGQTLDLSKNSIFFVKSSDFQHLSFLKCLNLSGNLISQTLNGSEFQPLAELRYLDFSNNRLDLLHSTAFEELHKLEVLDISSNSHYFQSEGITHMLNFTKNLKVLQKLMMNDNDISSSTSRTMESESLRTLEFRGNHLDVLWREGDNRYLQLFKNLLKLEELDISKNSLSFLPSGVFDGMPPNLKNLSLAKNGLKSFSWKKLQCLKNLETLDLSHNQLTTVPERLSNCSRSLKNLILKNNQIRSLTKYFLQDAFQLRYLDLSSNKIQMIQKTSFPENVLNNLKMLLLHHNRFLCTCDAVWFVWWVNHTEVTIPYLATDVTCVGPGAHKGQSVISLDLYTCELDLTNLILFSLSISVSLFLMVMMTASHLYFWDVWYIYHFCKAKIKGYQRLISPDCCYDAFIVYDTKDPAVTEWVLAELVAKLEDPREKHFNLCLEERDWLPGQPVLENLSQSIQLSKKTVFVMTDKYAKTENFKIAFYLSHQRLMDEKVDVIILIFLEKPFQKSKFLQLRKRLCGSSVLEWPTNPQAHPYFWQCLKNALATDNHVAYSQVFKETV
The data set can be described thus: Human TLR7 EC50 in HEK293 (Table A). In kind it is cell-based.

The test system of the next data set is MenB strain NZ98. Put plainly: Bactericidal assay of sera of immunized mice against the MenB strain NZ98. It counts as in vivo, N. meningitidis. As to conditions: delivered with PLG as encapsulated or as co-lyophilized, 25 or 100 μg. How it is done: The PLG formulations described above (Vials 1-6) were reconstituted in 1.4 mL of water for injection with gentle mixing. 100 μL of the formulations were injected per mouse, corresponding to 10 μg of each MenB antigen and in case of formulations containing Compound 47, 25 μg or 100 μg of the adjuvant. Each mouse was immunized intramuscularly (50 μL at two sites) on days 0 and 14, and bled on day 28 and on day 56.
For mice injected with MenB antigen, pooled sera for each group was analyzed for bactericidal assay against the MenB strain NZ98 2 weeks post 2nd immunization.
For mice injected with MenB antigen, pooled sera for each group was also analyzed for bactericidal assay against the MenB strain NZ98 6 weeks post 2nd immunization.

Data set [2] concerns mKC, MCP-1, IL-6, IL-10, IFNg and IL-5. Put plainly: Serum cytokine levels in mice (sandwich ELISA). In kind it is in vivo. As to conditions: i.m., 1, 3 and 24 hours, formulated in the PLG-based particles. Here is the method: Mice were also injected intramuscularly with above-described monodispersion of Compound 47 at a dose of 100 μg Compound 47. Serum cytokine levels (mKC, MCP-1, IL-6, IL-10, IFNg and IL-5) were measured at 1, 3 and 24 hours using sandwich ELISA.
(In an ELISA, binding on a coated surface is turned into a signal by an enzyme label.)

A short description of data set [3]: Compound content, recovery and encapsulation efficiency by RP-HPLC. It counts as physicochemical. The following applies: pellet vs supernatant after 10 mM HCl, 30 min.
Method: Compound 47 was analyzed by Reversed Phase High Performance Liquid Chromatography (RP-HPLC) using a Waters Acquity System using C18 XTerra column (Waters Corporation) and a gradient of 90% water+0.1% TFA/10% acetonitrile+0.1% TFA to 100% acetonitrile+0.1% TFA in 6 min.
To determine Compound 47 concentration, 100 μL of the particle suspension described above was mixed with 900 μL of DMSO and analyzed by RP-HPLC.
To determine encapsulation efficiency, 100 μL of the particle suspension described above was diluted to 1 mL with 10 mM HCl and rocked for 30 min at room temperature. The resulting particle suspension was centrifuged. The pellet was then dissolved in 1 mL DMSO and analyzed on the RP-HPLC system to determine the amount of encapsulated Compound 47. The supernatant was also analyzed on the RP-HPLC system to determine the amount of non-encapsulated Compound 47.
Data set [4] in a line: Pharmacokinetic profile of Compound 47 in mice (serum, lymph nodes, muscle; LC-MS). In kind it is in vivo. The following applies: i.m. once, 1 or 4 mg/kg, various PLG formulations (Vials 1-5), up to 30 days.

Where two headings read alike, the source gives them in different places.

The solubility is the dissolved amount per volume that the medium holds. For the molecule `Cc1ccc2c(c1)nc(N)c1ncc(CCc3ccc(OCCOCCOCCC(F)(F)P(=O)(O)O)cc3C)cc12` [Compound 6A, 3-(2-(2-(4-(2-(5-amino-8-methylbenzo[f][1,7]naphthyridin-2-yl)ethyl)-3-methylphenoxy)ethoxy)ethoxy)-1,1-difluoropropylphosphonic acid], the solubility in dichloromethane result in data set [1] (dichloromethane) was “not soluble in dichloromethane”. Further, the solubility in data set [1] (as base form) was under 400 µg/mL; in data set [1] (pH 7, as a sodium salt) it was over 4000 µg/mL.

For orientation: EC50 means the concentration that produces a half-maximal response. Low readings indicate an effect from little substance, high ones a need for much substance. As to `COc1ccc(CCc2cnc3c(N)nc4cc(C(O)(P(=O)(O)O)P(=O)(O)O)ccc4c3c2)c(C)c1` [Compound 19A], the EC50 on Human TLR7 is 23700 nM.

Turning to `Cc1ccc(CCc2cnc3c(N)nc4ccccc4c3c2)c(C)c1` [Compound 47, 2-(2,4-dimethylphenethyl)benzo[f][1,7]naphthyridin-5-amine], the “protection of the immunized mice against strain NZ98” value in the data set on MenB strain NZ98 was “significantly enhances the protection”. Also, the “serum cytokine levels (mKC, MCP-1, IL-6, IL-10, IFNg and IL-5)” value in data set [2] is reported as “low serum cytokines”. The “amount of Compound 47 encapsulated in PLG particles” value in data set [3] was over 90%. Besides, the “level of Compound 47 in serum” value in data set [4] was under 1000 nM.

(Values after patent US9517263B2, “Benzonaphthyridine-containing vaccines” (GlaxoSmithKline Biologicals SA, priority 2009, dated 2016).)
